Where two headings read alike, the source gives them in different places. Ends that are not written are not given here.
What was measured:
HIV JR-CSF = type: in vivo, humanized BLT mice; conditions: for Slope parameter (m) of median-effect plot: median-effect model, analogous to Hill coefficient; for EC50: sigmoidal dose-response (variable slope) model, 6.25-200 µM, n=10 per concentration
From the text: Humanized BLT mice were created as described previously, by implanting 1-mm^3 pieces of human fetal liver and thymus tissues (Advanced Bioscience Resources) under the kidney capsule of 6- to 8-week-old female NSG mice (Jackson Laboratories) bred at The Scripps Research Institute (TSRI). Each cohort was produced with tissues from a single donor. CD34+ hematopoietic stem and progenitor cells (HSPC) were purified from autologous fetal liver tissue, isolated by magnetic bead selection for CD34+ cells (Miltenyi), phenotyped by flow cytometry, and cryopreserved until injection (200,000-350,000 CD34+ cells) into mice 3 weeks after fetal liver and thymus tissue implantation. Human cell population reconstitution in peripheral blood was confirmed by flow cytometry as described previously. Briefly, the degree of humanization of the BLT mice was evaluated at 20 weeks of age (10 weeks post-CD34+ HSPC injection) by analysis of percentages of human CD45+ cells and human CD45+ CD4+ CD3+ cells in peripheral blood by FACS. Mice with <65% human CD45+ cells and <70% human CD45+ CD4+ CD3+ cells were not used for HIV exposure experiments. Mice were kept at the Department of Animal Resources at TSRI in accordance with protocols approved by the TSRI Institutional Animal Care and Use Committee.
Solutions of C5A peptides were prepared in phosphate buffered saline (PBS). After verifying the reconstitution of mice with human cells, a dose ranging study was conducted to determine the EC50 of C5A for preventing vaginal and rectal HIV infection. Stocks of HIV JR-CSF were prepared as previously described and standardized by p24 ELISA. Prior to inoculation, mice were anesthetized with isoflurane. Aliquots of C5A in PBS (5 µL) were administered vaginally or rectally in decreasing concentrations (200, 100, 50, 25, 12.5 and 6.25 µM; n=10 mice per concentration). Fifteen minutes post-C5A topical administration, mice were challenged (vaginal challenge for vaginal C5A administration, rectal challenge for C5A rectal administration) with HIV.
Infection of BLT mice was analyzed by quantifying HIV RNA levels in peripheral blood (plasma) using one-step reverse transcriptase quantitative real-time PCR (ABI custom TaqMan Assays-by-Design) according to the manufacturer’s instructions. Primers were 5-[…]-3 and 5-TGCTTGATGT CCCCCCACT-3, and MGB-probe 5-FAM-[…]-Q-3, where FAM is 6-carboxyfluorescein [36-38, 40, 42, 44-47, 52-54]. The assay sensitivity was of […] 400 RNA copies per mL.
Data were analyzed using GraphPad Prism (version 7.00, GraphPad Software, Inc., La Jolla, CA). Analytic simulations of dose-response curves using the median-effect principle and mass-action law, and its combination index theorem were carried out using CompuSyn.

[1] = system: cervical epithelial cells; conditions: at a concentration of 10- to 100-fold greater than that which blocks HIV infection; cited from earlier work
From the text: The short amphipathic helical peptide SWLRDIWDWICEVLSDFK called C5A, was originally identified by the Chisari lab as an active anti-hepatitis C virus (HCV) agent. The C5A amino acid sequence encompasses the region that permits the anchoring of the HCV nonstructural protein 5A (NS5A) into the ER membrane by an in-plane amphipathic alpha-helix (Fig. 1).

[2] = seminal plasma, cervical and vaginal fluids; cited from earlier work
From the text: (§1) In the absence of a safe and effective vaccine, there is an imperative demand for effective agents to reduce the 7,000 new HIV infections occurring every day. An attractive possibility is to identify the best drugs and drug combinations, delivered by optimal nBP methods such Intravaginal Rings (IVRs) for vaginal delivery and gels or enemas for rectal protection. We previously reported that C5A, a short, amphipathic, 18 amino acid (SWLRDIWDWICEVLSDFK) helical peptide, inhibits in vitro infectivity of a broad range of primary HIV isolates in various primary target cells. In this study, we ...

HIV = conditions: cited from earlier work
From the text: as §1

[3] = system: simian-human immunodeficiency virus (SHIV-162P3); conditions: vaginal application of C5A; ref 58 (b36 prints ref 57); cited from earlier work
From the text: as §1, with “... || Following these studies with unformulated C5A solutions applied topically, the next goal is to formulate C5A, alone and in combination with other antiretroviral agents, into murine intravaginal rings to evaluate sustained topical delivery approaches for protection against vaginal and rectal HIV challenges. We plan on using a combination of drugs with distinct mechanisms of action.” for “...”

[4] = macaques vaginally treated with repeated C5A applications; cited from earlier work
From the text: Following these studies with unformulated C5A solutions applied topically, the next goal is to formulate C5A, alone and in combination with other antiretroviral agents, into murine intravaginal rings to evaluate sustained topical delivery approaches for protection against vaginal and rectal HIV challenges. We plan on using a combination of drugs with distinct mechanisms of action.

HSV = conditions: Vero cells, human dendritic cells, primary genital epithelial cells in vitro, human epidermis ex vivo; cited from earlier work
From the text: Previous studies have shown that C5A inhibits HSV infection of Vero cells, human dendritic cells and primary genital epithelial cells in vitro as well as human epidermis (epidermal sheets) ex vivo, and that it inhibits acyclovir- and ganciclovir-resistant HSV isolates. Remarkably, in an in vitro transwell assay, C5A prevented HIV transmigration by preserving the integrity of the genital epithelium that ...

## SWLRDIWDWICEVLSDFK [C5A]
HIV JR-CSF; rectal compartment
  Slope parameter (m) of median-effect plot: 7.7 ± 1.2
HIV JR-CSF; rectal dosing, read-out: EC50 for protection against rectal HIV challenge
  EC50: 25.7 µM
HIV JR-CSF; vaginal compartment
  Slope parameter (m) of median-effect plot: 7.6 ± 1.2
HIV JR-CSF; vaginal dosing, read-out: EC50 for protection against vaginal HIV challenge
  EC50: 32.5 µM
[1]
  Toxicity to cervical epithelial cells: not toxic
[2]
  Antiviral activities in genital fluids: maintains its antiviral activities
HIV; pH 5 to 7
  Antiviral activity between pH 5 and 7: keeps is antiviral activity
HIV; pH 8
  Antiviral activity at pH 8: loses its activity
HIV; topical vaginal administration of 200 µM C5A in PBS, humanized mice
  Protection against a vaginal challenge of HIV: 100%
[3]
  Macaques protected from SHIV-162P3 challenge: 89%
[4]
  Signs of lesions or inflammation: no signs of lesions or inflammation
HSV
  Inhibition of HSV infection: efficiently inhibits

From paper PMC5842390, “Protection Efficacy of C5A Against Vaginal and Rectal HIV Challenges in Humanized Mice” (The Open Virology Journal, 2018)
